Data reported in patent US20220331391A1 (priority 2021, published 2022).
≈ marks a conversion by molar mass, not a printed value. Where “and” joins values, the source holds several entries; their conditions need not be identical. Identical values can stand only once. Like-named read-outs stand apart in the source and are kept apart here.

Assays:
[1] = mouse, in vivo, cited from earlier work; for Cmax in plasma / Tmax in plasma / t1/2 in plasma: po
[2] = system: Coccidioides posadasii, Silveira strain; details: cited from earlier work
[3] = system: Coccidioides; details: mouse, in vivo; cited from earlier work
[4] = dog, in vivo, po
[5] = in vivo, cited from earlier work
[6] = system: Coccidioides posadasii, Silveira strain; design: species or system mice; details: mouse, in vivo
[7] = mouse, in vivo; cited from earlier work
[8] = system: Coccidioides; details: mouse, in vivo, 40 mg/kg/day; cited from earlier work
[9] = mouse, in vivo, po, cited from earlier work
[10] = human, in vivo, po

In the case of `C[C@@H]([C@H](N)C(=O)N[C@H](C(=O)O)[C@H]1O[C@@H](n2ccc(=O)[nH]c2=O)[C@H](O)[C@@H]1O)[C@H](O)c1ccc(O)cn1` [nikZ, Nikkomycin Z], the Cmax in plasma ([1]; 100 mg/kg) is listed as 4200 ng/mL, the Tmax in plasma ([1]; 100 mg/kg) is listed as 2 h and the t1/2 in plasma ([1]; 100 mg/kg) is listed as 2.2 h. For the same molecule, the Cmax in plasma ([1]; 300 mg/kg) was 8000 ng/mL, the Tmax in plasma ([1]; 300 mg/kg) was 1 h and the t1/2 in plasma ([1]; 300 mg/kg) was 2.3 h. The “Half-life in blood (clearance)” value [1] was 1 to 2 h, the MFC [2] was 2.5 µg/mL (≈ 5.05 µM) and the MIC [2] was 2.5 µg/mL (≈ 5.05 µM). For the same molecule, the “Cmin as % of Cmax” value (mouse, in vivo) was 1%, the “Blood level as % of Cmax by 8 hours” value (mouse, in vivo, po) was “about 5%” and the “Time to reach Cmax” value (mouse, in vivo, po) was 1 to 2 h. The AUC (mouse, in vivo, po, 50 mg/kg) was 13,000, the Cmax (mouse, in vivo, po, 50 mg/kg) was 3,750 ng/ml and the T 1/2 (mouse, in vivo, po, 50 mg/kg) was 2.61 h. For the same molecule, the Tmax (mouse, in vivo, po, 50 mg/kg) was 1, the AUC (mouse, in vivo, po, 100 mg/kg) was 20,600 and the Cmax (mouse, in vivo, po, 100 mg/kg) was 4,620 ng/ml. For the same molecule, the T 1/2 (mouse, in vivo, po, 100 mg/kg) was 2.15 h, the Tmax (mouse, in vivo, po, 100 mg/kg) was 1 and the AUC (mouse, in vivo, po, 300 mg/kg) was 38,200. For the same molecule, the Cmax (mouse, in vivo, po, 300 mg/kg) was 7,950 ng/ml, the T 1/2 (mouse, in vivo, po, 300 mg/kg) was 2.26 h and the Tmax (mouse, in vivo, po, 300 mg/kg) was 2. For the same molecule, the “Mouse plasma nikZ level” value (time 0.5) was 2920 ng/mL, the “Mouse plasma nikZ level, % (of Cmax)” value (time 0.5) was 77.9% and the “Mouse plasma nikZ level” value (time 1) was 3750 ng/mL. The “Mouse plasma nikZ level, % (of Cmax)” value (time 1) was 100%, the “Mouse plasma nikZ level” value (time 2) was 2320 ng/mL and the “Mouse plasma nikZ level, % (of Cmax)” value (time 2) was 62% and 61.9%. The “Mouse plasma nikZ level” value (time 4) was 1400 ng/mL, the “Mouse plasma nikZ level, % (of Cmax)” value (time 4) was 37% and 37.3% and the “Mouse plasma nikZ level” value (time 8) was 180 ng/mL. For the same molecule, the “Mouse plasma nikZ level, % (of Cmax)” value (time 8) was 4.8%, the “Mouse plasma nikZ level” value (time 12) was 35 ng/mL and the “Mouse plasma nikZ level, % (of Cmax)” value (time 12) was 0.9%. For the same molecule, the “Mouse plasma nikZ level” value (time 24) was 7.5 ng/mL, the “Mouse plasma nikZ level, % (of Cmax)” value (time 24) was 0.2% and the “Liver CFU asymptote of dose response curve” value [3] was “about 100 CFU”. The “Lung fungal count at suppression (dose response curve)” value [3] was “below 10 CFU”, the “Spleen fungal count at suppression (dose response curve)” value [3] was “below 10 CFU” and the “log10 CFU reduction in liver” value [3] was −1.7 log10 CFU. The “log10 CFU reduction in lung” value [3] was −3.2 log10 CFU, the “log10 CFU reduction in spleen” value [3] was −1.8 log10 CFU and the “Blood level as % of Cmax by 8 hours” value [4] was “about 5%”. The “Time to reach Cmax” value [4] was 1 to 2 h, the “Half-life in blood (clearance)” value ([5]; human) was 1 to 2 h and the “Dose at which tapering in oral uptake efficiency is observed (breakpoint)” value ([5]; po) was “about 5.5 mg/kg”. The “Brains sterilized in survivors” value [6] was 86% and 89% and 80%, the “Brains sterilized, mice/10 treated” value [6] was at least 6 mice/10 and the “Clear brains of survivors (mice)” value [6] was 6 of 7 and 8 of 9. For the same molecule, the “Infected brain, number of mice among survivors” value [6] was 1 and 2, the “Infected kidney, number of mice among survivors” value [6] was 0 and the “Infected spleen, number of mice among survivors” value [6] was 0. For the same molecule, the “Kidney CFU in survivors: number of mice with 0 CFU” value [6] was 7 and 9 and 10, the “Kidney CFU in survivors: number of mice with 1-2 CFU” value [6] was 0 and the “Kidney CFU in survivors: number of mice with 10-20 CFU” value [6] was 0. For the same molecule, the “Kidney CFU in survivors: number of mice with TNTC (too numerous to count)” value [6] was 0, the “Liver CFU in survivors: number of mice with 0 CFU” value [6] was 6 and 9 and 10 and the “Liver CFU in survivors: number of mice with 10-20 CFU” value [6] was 0. For the same molecule, the “Liver CFU in survivors: number of mice with TNTC (too numerous to count)” value [6] was 0, the “Lung CFU in survivors: number of mice with 0 CFU” value [6] was 6 and 9 and the “Lung CFU in survivors: number of mice with 10-20 CFU” value [6] was 0. For the same molecule, the “Lung CFU in survivors: number of mice with TNTC (too numerous to count)” value [6] was 0, the “No infection any organ, number of mice (complete sterilization)” value [6] was 6 and 8 and the “Spleen CFU in survivors: number of mice with 0 CFU” value [6] was 7 and 9 and 10. For the same molecule, the “Spleen CFU in survivors: number of mice with 1-2 CFU” value [6] was 0, the “Spleen CFU in survivors: number of mice with 10-20 CFU” value [6] was 0 and the “Spleen CFU in survivors: number of mice with TNTC (too numerous to count)” value [6] was 0. For the same molecule, the Survivors [6] was 7/10 and 9/10 and 10/10, the Tolerated oral dose [7] was “up to 2000 mg/kg/day” and the Survival [8] was 20%. For the same molecule, the Cmax in brain ([9]; 100 mg/kg) was 0.20 mcg/gm, the Tmax in brain ([9]; 100 mg/kg) was 2 h and the t1/2 in brain ([9]; 100 mg/kg) was 6.2 h. The Cmax in brain ([9]; 300 mg/kg) was 0.26 mcg/gm, the Tmax in brain ([9]; 300 mg/kg) was 2 h and the t1/2 in brain ([9]; 300 mg/kg) was 4.4 h. The “Blood level as % of Cmax by 8 hours” value [10] was “about 5%” and the “Time to reach Cmax” value [10] was 1 to 2 h.

In the case of `OC(Cn1cncn1)(Cn1cncn1)c1ccc(F)cc1F` [FCZ, Fluconazole, reference compound], the MFC [2] is listed as over 100 µg/mL, the MIC [2] is listed as 6.25 µg/mL (≈ 20.4 µM) and the “Brains sterilized in survivors” value [6] is listed as 20%. For the same molecule, the “Clear brains of survivors (mice)” value [6] was 1 of 5, the “Infected brain and infected other organs, number of mice among survivors” value [6] was 4 and the “Infected brain only, number of mice among survivors” value [6] was 0. For the same molecule, the “Infected brain, number of mice among survivors” value [6] was 4, the “Infected kidney, number of mice among survivors” value [6] was 1 and the “Infected liver, number of mice among survivors” value [6] was 4. The “Infected lung, number of mice among survivors” value [6] was 4, the “Infected spleen, number of mice among survivors” value [6] was 3 and the “Kidney CFU in survivors: number of mice with 0 CFU” value [6] was 5. For the same molecule, the “Kidney CFU in survivors: number of mice with 1-2 CFU” value [6] was 0, the “Kidney CFU in survivors: number of mice with 10-20 CFU” value [6] was 0 and the “Kidney CFU in survivors: number of mice with TNTC (too numerous to count)” value [6] was 0. The “Liver CFU in survivors: number of mice with 0 CFU” value [6] was 1, the “Liver CFU in survivors: number of mice with 1-2 CFU” value [6] was 1 and the “Liver CFU in survivors: number of mice with 10-20 CFU” value [6] was 2. For the same molecule, the “Liver CFU in survivors: number of mice with TNTC (too numerous to count)” value [6] was 1, the “Lung CFU in survivors: number of mice with 0 CFU” value [6] was 1 and the “Lung CFU in survivors: number of mice with 1-2 CFU” value [6] was 2. The “Lung CFU in survivors: number of mice with 10-20 CFU” value [6] was 1, the “Lung CFU in survivors: number of mice with TNTC (too numerous to count)” value [6] was 1 and the “No infection any organ, number of mice (complete sterilization)” value [6] was 1. For the same molecule, the “Semiquantitative culture, CFU in all organs except the spleen” value [6] was “too numerous to count”, the “Semiquantitative culture, CFU in spleen” value [6] was “no CFU” and the “Spleen CFU in survivors: number of mice with 0 CFU” value [6] was 2. The “Spleen CFU in survivors: number of mice with 1-2 CFU” value [6] was 2, the “Spleen CFU in survivors: number of mice with 10-20 CFU” value [6] was 1 and the “Spleen CFU in survivors: number of mice with TNTC (too numerous to count)” value [6] was 0. For the same molecule, the Survival [6] was 50% and the Survivors [6] was 5/10.
